Holding throughout (type): in vivo, human
Series [1] can be described thus: Example 3: pharmacokinetics. Conditions: all dose groups.
The subject of series [2] is serum lipid levels. Nature of the series: Example 2: serum lipid levels. The protocol:
Each tablet contained 5 mg (BID), 10 mg (QD), 20 mg (QD), or 30 mg (QD).

The test system of series [3] is serum lipid levels. Description: Example 7: serum lipid levels. The protocol: Postprandial levels of lipid parameters after administration of the compound of formula (I) were evaluated using the change from preceding timepoint. […] Intraday changes and changes from pretreatment baseline also indicate that the absorption of TG, VLDL-TG, and chylomicron-TG were delayed compared to placebo. This delayed absorption is consistent with a previous pharmacology study in healthy male Japanese subjects. The postprandial results were interpreted with caution as the delay in absorption can impact the calculation regarding the magnitude of the postprandial change in triglycerides. However, the suppression of the expected increases in postprandial TG, VLDL-TG, and chylomicron-TG, which is indicative of MTP inhibition, clearly supports the mechanism of action of the compound of formula (I). The VLDL-TG changes observed in this study are consistent with previous studies (Examples 2 and 6) where the compound of formula (I) was administered for up to 14 days in healthy or hypertriglyceridemic Caucasian and Japanese male subjects. In general, the compound of formula (I) levels were also low or non-quantifiable in these studies. […] Therefore, the compound of formula (I) is not believed to directly affect the liver.

The next series in a line: Example 8: safety. The source says:
The study had 180 participants.

A short description of series [4]: Example 9: safety and tolerability. The procedure: The study enrolled 16 obese male subjects (18-65 years of age (inclusive), with a body mass index (BMI) >30.0 kg/m^2 and <40.0 kg/m^2) who participated in two treatment periods. During Period 1, 8 subjects were randomized to receive 3.5 mg of the compound of formula (I), and 8 subjects were randomized to receive placebo. The compound of formula (I) or placebo was administered twice daily (BID), 30 minutes after the start of breakfast and dinner, for 10 days. All subjects were discharged from the clinic at the end of Period 1 for a 9±2 day discharge period. Subjects then returned for treatment during Period 2, in which (i) the group previously receiving the compound of formula (I) now received placebo, and (ii) the group previously receiving placebo now received the compound of formula (I), in accordance with the protocol described above.

Consider `CCOC(=O)C(COC(=O)Cc1ccc(NC(=O)c2ccccc2-c2ccc(C(F)(F)F)cc2)c(C(=O)N(C)C)c1)(C(=O)OCC)c1ccccc1` [compound of formula (I), diethyl 2-((2-(3-(dimethylcarbamoyl)-4-(4′-(trifiuoromethyl)biphenyl-2-ylcarboxamido)phenyl)acetoxy)methyl)-2-phenyl malonate], for which, in series [1], the “plasma concentrations of the compound of formula (I)” value is “below the limit of quantization”. The “postprandial elevations for TG, HDL-TG, LDL-TG, Midband-TG, VLDL-TG, CM-TG, and ApoB48” value with serum lipid levels [2] (active group) is listed as “suppressed”. Also, the “TC, HDL-C, LDL-C, and ApoB values” in the series on serum lipid levels [2] (by and after Day 7) is “decreased”. Moreover, the “postprandial estimates for TG, VLDL-TG, and chylomicron-TG” value in the series on serum lipid levels [3] (following breakfast and dinner) was “substantially lower when compared with placebo”. Besides, in the series with serum lipid levels [3] (in vivo), the “decrease in HDL-C levels” value is listed as “not as pronounced as LDL-C, nor was it statistically significant”; the “pretreatment baseline adjusted values of TC, LDL-C, LDL-TG, ApoB, and phospholipids” value is reported as “significant reduction”. Further, the “incidence of drug-related decreased appetite” value in the series “Example 8: safety” (1 mg BID) was 4.4%. In the series “Example 8: safety” (2.5 mg BID), the “incidence of drug-related decreased appetite” value came out at 20.0% and the “subjects prematurely discontinued due to diarrhea” value is reported as 1 subject. Moreover, in the series “Example 8: safety” (3.5 mg BID), the “incidence of drug-related decreased appetite” value came out at 22.2% and the “subjects prematurely discontinued due to diarrhea” value is reported as 2 subject. The tolerability entry in “Example 8: safety” (1 to 3.5 mg BID, 12 weeks) is reported as “generally well tolerated”. In addition, in the series “Example 8: safety” (in vivo), the “fat-soluble vitamins or coagulation factors” value was “no clinically significant changes” and the “liver function parameters (AST, ALT, alkaline phosphatase) PCS values” is on record as “no subject had a PCS value”. Further, in series [4] (3.5 mg BID, 10 days), the “deaths or serious adverse events” value is given as “no deaths or serious adverse events” and the “subjects with at least one treatment-emergent adverse event” value is 53.3%. In addition, the safety and tolerability result in series [4] (3.5 mg BID, 10 days, fed conditions) was “safe and well-tolerated”. Further, the “hematology, biochemistry, urinalysis, vital sign (including weight), ECG changes from baseline” value in series [4] (in vivo) was “No clinically meaningful mean changes”.
